From patent US11446388B2, “Amanitin antibody conjugates” ([…] Research GmbH, priority 2016, dated 2022)
*1 amine or outer side, *2 acyl side, *3 side chain or, on linkers, in order; H or OH if unused. Where a SMILES comes first, the peptide text is derived from it. Bridges are numbered along the chain shown (N, C = ends). [ ]: non-standard residue; d: D form. The star is where a group is joined. ξ: configuration not given here. X2 = CC(C)C(NC(=O)CCN1C(=O)C=CC1=O)C(=O)N[C@@H](C)C(=O)Nc1ccc(CN*)cc1; Trp(2-yl) = O=C([C@H](Cc1c([*:3])[nH]c2ccccc12)N[*:1])[*:2]; Ile(4R-OH,5-OH) = C[C@H]([C@H](N)C(=O)O)[C@@H](O)CO; X3 = CC([C@H](N[*:1])C(=O)[*:2])[C@@H](O)CO; X1 = O=C([C@@H]1CC(O)CN1[*:1])[*:2]; ξD = NC(CC(=O)O)C(=O)O; ξC = NC(CS)C(=O)O

How the values were obtained:
[1] = Western-Blot stability of reference Thiomab D265C conjugates in plasma and PBS; type: in vitro ADME; settings: conjugated to reference Thiomab D265C; 37° C. in human plasma, mouse plasma and PBS for 0, 4 and 10 days
From the text: Detection was done with a polyclonal anti-amanitin antibody from rabbit and an anti-rabbit antibody conjugated to horseradish peroxidase.

SKBR-3 cells = assay: Cytotoxicity on SKBR-3 after plasma or PBS stressing of reference Thiomab conjugates; type: cell-based; settings: 4 days, SKBR-3 cells 96 h
Procedure: Test items were incubated in human plasma at 37° C. for 0 an 4 days. Cytotoxicity assay were performed on SKBR-3 cells for 96 h.
Test items were incubated in mouse plasma at 37° C. for 0 an 4 days. Cytotoxicity assay were performed on SKBR-3 cells for 96 h.
Test items were incubated in PBS at 37° C. for 0 an 4 days. Cytotoxicity assay were performed on SKBR-3 cells for 96 h. All ADCs show adequate stability to non-enzymatic environment.

[2] = Reactivity with cysteine in PBS buffer (RP-HPLC C18); type: physicochemical; settings: 1 mg/mL, 10 mg/mL cysteine in PBS, pH 7.4 at 37° C., 24 h, 48 h and 6 d
Procedure: 1 mg/mL α-amanitin 10 mg/mL cysteine in PBS, pH 7.4 at 37° C. after 24 h, 48 h and 6 d RP-HPLC C18.
1 mg/mL β-amanitin 10 mg/mL cysteine in PBS, pH 7.4 at 37° C. after 24 h, 48 h and 6 d RP-HPLC C18.
1 mg/mL amanin 10 mg/mL cysteine in PBS, pH 7.4 at 37° C. after 24 h, 48 h and 6 d RP-HPLC C18.
1 mg/mL HDP 30.2105, 10 mg/mL cysteine in PBS, pH 7.4 at 37° C. after 24 h, 48 h and 6 d RP-HPLC C18; *impurity.
FIG. 7 summarizes the results from FIGS. 3 to 6; x axis: reaction time in hours; y axis: amount of remaining amatoxin variant in %.

MM.1S Luc xenograft [3] = assay: Disseminating MM.1S Luc xenograft model, comparison with J22.9-ISY-MMAF; type: in vivo
Procedure: The antitumor activity of J22.9-ISY-D265C-30.2115 was compared to the interchain conjugate J22.9-ISY-MMAF in a disseminating intravenous MM.1S Luc xenograft model at doses of 1 and 4 mg/kg.

[4] = system: BCMA-positive NCI-H929 cells; assay: Plasma stability: cell-based cytotoxicity assay after incubation in plasma or PBS; parameters: species or system human
Procedure: J22.9-ISY-D265C-30.2115 (A) and J22.9-ISY-D265C-30.1699 (B) were incubated in PBS for control, or human, cynomolgus or mouse plasma for 0, 4, and 10 days at 37° C. and analysed for remaining cellular toxicity potential using BCMA-positive NCI-H929 cells.
Plasma stability of both ADC variants was confirmed in a cell-based cytotoxicity assay on BCMA-positive NCI-H929 cells (see Table 2) after incubation for 0, 4 and 10 days in PBS, human, cynomolgus or mouse plasma.

MM.1S Luc, and KMS-11 = assay: Timeline cytotoxicity experiment 24 to 120 hours on the two cell lines; type: cell-based, human; settings: measured after 24, 46, 72, 96, and 120 hours
Procedure: Cytotoxicity potentials of J22.9-ISY-D265C-30.2115 was compared to the interchain conjugate J22.9-ISY-MMAF on two BCMA-positive MM cell lines (MM.1S Luc, and KMS-11). […] The efficacy of both compounds was compared in a timeline experiment on the two cell lines. Cytotoxicity was measured after 24, 46, 72, 96, and 120 hours (see FIGS. 26B+26C).

[5] = Dose-escalating tolerability study in non-human primates; type: in vivo, cynomolgus monkeys; settings: repeated dosing of 3 mg/kg
Procedure: ALT: alanine transaminase; AST: aspartate transaminase; LDH: lactate dehydrogenase.
J22.9-ISY-D265C-30.2115 and J22.9-ISY-D265C-30.1699 were assessed for a dose-escalating tolerability study in cynomolgus monkeys. Groups of 3 animals were injected with J22.9-ISY-D265C-30.1699 at days 1 (0.3 mg/kg), 22 (1 mg/kg), and 44 (3 mg/kg), or with J22.9-ISY-D265C-30.2115 at days 1 (0.3 mg/kg), 21 (1 mg/kg), and 42, 64, 84, 106 (3 mg/kg each time point). Animals were monitored over time for biochemical and haematological blood parameters (see FIG. 25), urinalysis, body weight, food consumption, clinical signs and mortality. In addition, blood samples were collected for pharmacokinetic studies. At the end of the experiments tissue samples are used for histopathological examinations.

[6] = type: in vitro ADME; settings: 37° C. for 0, 4, and 10 days in PBS, human, cynomolgus or mouse plasma
Procedure: Stability of J22.9-ISY-D265C-30.2115 and J22.9-ISY-D265C-30.1699 was tested following incubation at 37° C. for 0, 4, and 10 days in PBS, human, cynomolgus or mouse plasma.

[7] = system: NCI-H929 subcutaneous xenograft; assay: NCI-H929 subcutaneous xenograft, repeated dose; type: in vivo, mouse
Procedure: Once tumor volume reached 80 mm^3, mice (9 animals per group) were treated intravenously either once per week (1×/week), every two weeks (1×/2 weeks) or every 3 weeks (1×/3 weeks) with J22.9-ISY-D265C-30.2115 (doses 0.25 mg/kg, 0.5 mg/kg or 1 mg/kg) or were treated with PBS as control. In addition, 2 mg/kg doses were applied twice per week (2×/week). Tumor volumes were monitored twice per week.
The efficacy of drug substance J22.9-ISY-D265C-30.2115 was further evaluated in a repeated dose setting in the subcutaneous NCI-H929 xenograft model. Compared to the single dose application described above, doses were reduced to 1, 0.5 and 0.25 mg/kg and applied either once per week (1×/week), every two weeks (1×/2 weeks) or every three weeks (1×/3 weeks).

[8] = system: NCI-H929 subcutaneous xenograft; assay: NCI-H929 subcutaneous xenograft, single dose; type: in vivo, mouse
Procedure: Once tumor volume reached 80 mm^3, mice (8 animals per group) were treated intravenously with single doses (2 or 4 mg/kg) of J22.9-ISY-D265C-30.2115 or J22.9-ISY-D265C-30.1699, or were treated with PBS as control.. Tumor volumes were monitored twice per week.
Antitumor activity of J22.9-ISY-D265C-30.2115 and J22.9-ISY-D265C-30.1699 was tested in a subcutaneous NCI-H929 (see Table 3 for details of cell line) mouse xenograft model.

MM.1S Luc xenograft [9] = assay: Disseminating intravenous MM.1S Luc xenograft model, single dose; type: in vivo, mouse
Procedure: When reaching a mean flux of 1.5×10^6-1×10^7 (10-14 days after implantation) 8-10 mice per group were treated with single doses (2 and 4 mg/kg) of J22.9-ISY-D265C-30.1699, J22.9-ISY-D265C-30.2115 or PBS as control. Luciferase activity was monitored by non-invasive bio-imaging twice weekly, 10 minutes after administration of luciferin (10 μl/g body weight). (B) Individual tumor growth curves for each animal are depicted. Individual Growth curves are shown for groups treated with 2 mg/kg (solid line) and 4 mg/kg (dashed line) of J22.9-ISY-D265C-30.2115.
When reaching a mean flux of 1.5×10^6-1×10^7 (10-14 days after implantation) 8-10 mice per group were treated with single doses (0.1, 0.3, 1 and 2 mg/kg) of J22.9-ISY-D265C-30.2115 or PBS as control. Luciferase activity was monitored by non-invasive bio-imaging twice weekly, 10 minutes after administration of luciferin (10 μl/g body weight). (B) Individual tumor growth curves for each animal are depicted. Growth curves are shown for groups treated with 1 mg/kg (solid line) and 2 mg/kg (dashed line) of J22.9-ISY-D265C-30.2115.
The antitumor activity of J22.9-ISY-D265C-30.1699 and J22.9-ISY-D265C-30.2115 was further tested in a disseminating intravenous MM.1S Luc xenograft model at doses of 2 and 4 mg/kg. […]

RNA-polymerase II = RNA-polymerase II (Homo sapiens, UniProt P24928); settings: read-out: KD of complex with RNA-polymerase II; cited from earlier work

## CC[C@H](C)[C@@H]1NC(=O)CNC(=O)[C@H]2Cc3c([nH]c4cc(OCc5ccc(NC(=O)[C@H](C)NC(=O)[C@@H](NC(=O)CCN6C(=O)C=CC6=O)C(C)C)cc5)ccc34)[S@+]([O-])CC(NC(=O)CNC1=O)C(=O)N[C@@H](CC(N)=O)C(=O)N1CC(O)C[C@H]1C(=O)N[C@@H]([C@@H](C)[C@@H](O)CO)C(=O)N2 (some centres unmarked) [HDP 30.1699]
[1]
  stability / cross-links (Western-Blot): considerable cross-links and loss of the amatoxin moiety
SKBR-3 cells; human plasma at 37° C.
  cytotoxicity after plasma stressing: remarkable loss of cytotoxicity
SKBR-3 cells; mouse plasma at 37° C.
  cytotoxicity after plasma stressing: remarkable loss of cytotoxicity

## CC[C@H](C)[C@@H]1NC(=O)CNC(=O)[C@@H]2Cc3c([nH]c4ccccc34)SCC(NC(=O)CNC1=O)C(=O)NC(CC(=O)O)C(=O)N1CC(O)C[C@H]1C(=O)N[C@@H](C(C)[C@@H](O)CO)C(=O)N2 (some centres unmarked) [HDP 30.2105] (cyclo(GIG[ξC][ξD][X1][X3][Trp(2-yl)]); thioether 4-8)
[2]
  reactivity with cysteine: complete absence of reactivity

## CC[C@H](C)[C@@H]1NC(=O)CNC(=O)[C@@H]2Cc3c([nH]c4ccccc34)SCC(NC(=O)CNC1=O)C(=O)N[C@@H](CC(=O)NCc1ccc(NC(=O)[C@H](C)NC(=O)C(NC(=O)CCN3C(=O)C=CC3=O)C(C)C)cc1)C(=O)N1CC(O)C[C@H]1C(=O)N[C@@H]([C@@H](C)[C@@H](O)CO)C(=O)N2 (stereo partly drawn) [HDP 30.2115] (cyclo(D(X2)[X1][Ile(4R-OH,5-OH)][Trp(2-yl)]GIG[ξC]); thioether 4-8)
[1]
  stability / cross-links (Western-Blot): high stability and significantly reduced cross-links
SKBR-3 cells; human plasma at 37° C.
  cytotoxicity after plasma stressing: still picomolar activity
SKBR-3 cells; mouse plasma at 37° C.
  cytotoxicity after plasma stressing: remains almost unchanged

## J22.9-ISY-D265C-30.2115: Thiomab antibody J22.9-ISY-D265C conjugated to amatoxin-linker HDP 30.2115 via engineered cysteine 265, cleavable linker
MM.1S Luc xenograft [3]; 1 mg/kg
  time to regrowth of the tumor: 50 days
MM.1S Luc xenograft [3]; 4 mg/kg
  time to regrowth of the tumor: 100 days
MM.1S Luc xenograft [3]; 1 and 4 mg/kg (both doses)
  time to initial response: 10 days
MM.1S Luc xenograft [3]; in vivo
  efficacy compared with MMAF conjugate: better efficacy in terms of tumor free survival
[4]; PBS pH 7.4, day 0, 37° C.
  EC50: 240 pM
[4]; PBS pH 7.4, day 4, 37° C.
  EC50: 240 pM
[4]; PBS pH 7.4, day 10, 37° C.
  EC50: 410 pM
[4]; cynomolgus plasma, day 0, 37° C.
  EC50: 250 pM
[4]; cynomolgus plasma, day 4, 37° C.
  EC50: 250 pM
[4]; human plasma, day 0, 37° C.
  EC50: 280 pM
[4]; human plasma, day 4, 37° C.
  EC50: 270 pM
[4]; human plasma, day 10, 37° C.
  EC50: 1000 pM
[4]; incubation in PBS or plasma up to 10 days
  influence of incubation on cytotoxic potential: almost no influence on the cytotoxic potential
[4]; mouse plasma, day 0, 37° C.
  EC50: 120 pM
[4]; mouse plasma, day 4, 37° C.
  EC50: 180 pM
[4]; mouse plasma, day 10, 37° C.
  EC50: 600 pM
MM.1S Luc, and KMS-11
  time at which full cytotoxicity is unfolded: after 96 and 120 hours
[5]
  liver enzymes or LDH on repeated dosing: did not result in further increase
[6]
  stability (Western Blot): particularly high stability
[7]; repeated 2 mg/kg dosing
  tumor response: complete tumor remission
[7]; repeatedly applied doses of 1 mg/kg
  tumor response: tumor regression
[8]; 2 mg/kg
  anti-tumor efficacy compared to J22.9-ISY-D265C-30.1699: slightly superior anti-tumor efficacy
[8]; single doses 2 or 4 mg/kg
  statistically significant body weight reduction: No statistically significant body weight reduction was observed
[8]; single treatment 2 mg/kg iv
  initial response followed by regrowth of tumor: 6 of 8
[8]; single treatment 4 mg/kg iv
  complete tumor remission: 7 of 8
MM.1S Luc xenograft [9]; single dose application of 0.3 mg/kg
  tumor response: complete tumor eradication
MM.1S Luc xenograft [9]; single doses of 2 and 4 mg/kg
  slight regrowth of tumor after initial response for over 90 days: 1 of 10

## amanin
[2]
  reactivity with cysteine: reduced reactivity

## amanitin
RNA-polymerase II
  Kd: 3000 pM

## α-amanitin
[2]
  reactivity with cysteine: strong reactivity

## β-amanitin
[2]
  reactivity with cysteine: strong reactivity
